These results are taken from the supplement of paper PMC10307832.

Assay in all cases: relative viability (nuclei count vs DMSO), 5 days (fraction); higher = more cells survive
Compound in experiment [1]: CC1=C(N=C(N=C1N)[C@H](CC(=O)N)NC[C@@H](C(=O)N)N)C(=O)N[C@@H]([C@H](C2=CN=CN2)OC3C(C(C(C(O3)CO)O)O)OC4C(C(C(C(O4)CO)O)OC(=O)N)O)C(=O)N[C@H](C)[C@H]([C@H](C)C(=O)N[C@@H]([C@@H](C)O)C(=O)NCCC5=NC(=CS5)C6=NC(=CS6)C(=O)NCCC[S+](C)C)O [Bleomycin] + N=C(N)NC(=N)NCCc1ccccc1 [Phenformin] (partner 250 µM)
The note with it: main component drawn. Summed up: (§1)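 One day after seeding in 1536-well plates, lung cancer cell lines were dosed by pin tool. Dosing was either single-drug or a fixed anchor-drug dose plus five library-drug doses (not always all listed) in √10 steps. After 5 days, nuclei were stained in one fix-and-stain step and counted on 4× images, and relative viability is the nuclei count of treated wells over that of vehicle wells, given as the median of duplicate plates.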

Compound in experiment [2]: COc1cc([C@@H]2c3cc4c(cc3[C@@H](O[C@@H]3O[C@@H]5CO[C@@H](C)O[C@H]5[C@H](O)[C@H]3O)[C@H]3COC(=O)[C@H]23)OCO4)cc(OC)c1O [Etoposide] + O=C(CCCCCCC(=O)Nc1ccccc1)NO [Vorinostat] (partner 1 µM)
Summed up: as §1

Compound in experiment [3]: COc1cc([C@@H]2c3cc4c(cc3[C@@H](O[C@@H]3O[C@@H]5CO[C@@H](C)O[C@H]5[C@H](O)[C@H]3O)[C@H]3COC(=O)[C@H]23)OCO4)cc(OC)c1O [Etoposide] + CS(=O)(=O)N1CCN(Cc2cc3nc(-c4cccc5[nH]ncc45)nc(N4CCOCC4)c3s2)CC1 [Pictilisib] (partner 1 µM)
An outline of the steps: as §1

Compound in experiment [4]: COc1cc([C@@H]2c3cc4c(cc3[C@@H](O[C@@H]3O[C@@H]5CO[C@@H](C)O[C@H]5[C@H](O)[C@H]3O)[C@H]3COC(=O)[C@H]23)OCO4)cc(OC)c1O [Etoposide] + CC(=O)Nc1cccc(-n2c(=O)n(C3CC3)c(=O)c3c(Nc4ccc(I)cc4F)n(C)c(=O)c(C)c32)c1 [Trametinib] (partner 0.02 µM)
An outline of the steps: as §1

For NCI-H838, the relative viability amounted to 0.381 in experiment [1] (first compound 0.01 µM); 0.297 in experiment [1] (first compound 0.03162 µM); 0.185 in experiment [1] (first compound 0.1 µM); 0.188 in experiment [1] (first compound 0.3162 µM); 0.153 in experiment [1] (first compound 1 µM); 0.74 in experiment [2] (first compound 0.01 µM). Besides, the relative viability in experiment [2] (first compound 0.03162 µM) came out at 0.67; in experiment [2] (first compound 0.1 µM), 0.69; in experiment [2] (first compound 0.3162 µM), 0.538; in experiment [2] (first compound 1 µM), 0.267; in experiment [3] (first compound 0.01 µM), 0.461; in experiment [3] (first compound 0.03162 µM), 0.544. The relative viability in experiment [3] (first compound 0.1 µM) was 0.284; in experiment [3] (first compound 0.3162 µM), 0.329; in experiment [3] (first compound 1 µM) it was 0.186; in experiment [4] (first compound 0.01 µM), 0.463; in experiment [4] (first compound 0.03162 µM), 0.502; in experiment [4] (first compound 0.1 µM), 0.378. For the same cell line, the relative viability in experiment [4] (first compound 0.3162 µM) was 0.406; in experiment [4] (first compound 1 µM), 0.253.
Turning to LU99A, the relative viability in experiment [1] (first compound 0.01 µM) is 0.636; in experiment [1] (first compound 0.03162 µM) it was 0.827; in experiment [1] (first compound 0.1 µM) it was 0.673; in experiment [1] (first compound 0.3162 µM) it was 0.33; in experiment [1] (first compound 1 µM) it was 0.159; in experiment [2] (first compound 0.01 µM), 0.489. Also, the relative viability in experiment [2] (first compound 0.03162 µM) was 0.533; in experiment [2] (first compound 0.1 µM), 0.23; in experiment [2] (first compound 0.3162 µM), 0.297; in experiment [2] (first compound 1 µM), 0.108; in experiment [3] (first compound 0.01 µM), 0.362; in experiment [3] (first compound 0.03162 µM), 0.337. Also, the relative viability amounted to 0.237 in experiment [3] (first compound 0.1 µM); 0.212 in experiment [3] (first compound 0.3162 µM); 0.159 in experiment [3] (first compound 1 µM); 0.493 in experiment [4] (first compound 0.01 µM); 0.672 in experiment [4] (first compound 0.03162 µM); 0.391 in experiment [4] (first compound 0.1 µM). In addition, the figures for the relative viability in experiment [4] (first compound 0.3162 µM) and in experiment [4] (first compound 1 µM) were 0.312 and 0.206, respectively.
On to NCI-H650, for which the relative viability is 0.342 in experiment [1] (first compound 0.01 µM); 0.399 in experiment [1] (first compound 0.03162 µM); 0.384 in experiment [1] (first compound 0.1 µM); 0.327 in experiment [1] (first compound 0.3162 µM); 0.202 in experiment [1] (first compound 1 µM); 0.438 in experiment [2] (first compound 0.01 µM). Moreover, the relative viability in experiment [2] (first compound 0.03162 µM) was determined as 0.454; in experiment [2] (first compound 0.1 µM) it was 0.241; in experiment [2] (first compound 0.3162 µM), 0.266; in experiment [2] (first compound 1 µM), 0.181; in experiment [3] (first compound 0.01 µM), 0.865; in experiment [3] (first compound 0.03162 µM), 0.843. Moreover, the relative viability was 0.415 in experiment [3] (first compound 0.1 µM); 0.362 in experiment [3] (first compound 0.3162 µM); 0.221 in experiment [3] (first compound 1 µM); 0.884 in experiment [4] (first compound 0.01 µM); 0.951 in experiment [4] (first compound 0.03162 µM); 0.681 in experiment [4] (first compound 0.1 µM). Besides, the relative viability in experiment [4] (first compound 0.3162 µM) came out at 0.527; in experiment [4] (first compound 1 µM), 0.195.
For the cell line HCC-78, the relative viability in experiment [1] (first compound 0.01 µM) came to 0.573; in experiment [1] (first compound 0.03162 µM) it was 0.74; in experiment [1] (first compound 0.1 µM), 0.581; in experiment [1] (first compound 0.3162 µM), 0.321; in experiment [1] (first compound 1 µM), 0.403; in experiment [2] (first compound 0.01 µM), 0.396. In addition, the relative viability worked out at 0.494 in experiment [2] (first compound 0.03162 µM); 0.329 in experiment [2] (first compound 0.1 µM); 0.256 in experiment [2] (first compound 0.3162 µM); 0.242 in experiment [2] (first compound 1 µM); 0.218 in experiment [3] (first compound 0.01 µM); 0.202 in experiment [3] (first compound 0.03162 µM). Moreover, the relative viability turned out to be 0.144 in experiment [3] (first compound 0.1 µM); 0.188 in experiment [3] (first compound 0.3162 µM); 0.15 in experiment [3] (first compound 1 µM); 0.585 in experiment [4] (first compound 0.01 µM); 0.759 in experiment [4] (first compound 0.03162 µM); 0.648 in experiment [4] (first compound 0.1 µM). In addition, the relative viability in experiment [4] (first compound 0.3162 µM) worked out at 0.403; in experiment [4] (first compound 1 µM) it was 0.299.
NCI-H1755: the relative viability in experiment [1] (first compound 0.01 µM) was 0.562; in experiment [1] (first compound 0.03162 µM), 0.589; in experiment [1] (first compound 0.1 µM), 0.593; in experiment [1] (first compound 0.3162 µM) it was 0.507; in experiment [1] (first compound 1 µM) it was 0.39; in experiment [2] (first compound 0.01 µM) it was 0.748. Moreover, the relative viability was determined as 0.896 in experiment [2] (first compound 0.03162 µM); 0.694 in experiment [2] (first compound 0.1 µM); 0.743 in experiment [2] (first compound 0.3162 µM); 0.474 in experiment [2] (first compound 1 µM); 0.434 in experiment [3] (first compound 0.01 µM); 0.473 in experiment [3] (first compound 0.03162 µM). In addition, the relative viability is 0.316 in experiment [3] (first compound 0.1 µM); 0.426 in experiment [3] (first compound 0.3162 µM); 0.269 in experiment [3] (first compound 1 µM); 0.751 in experiment [4] (first compound 0.01 µM); 0.787 in experiment [4] (first compound 0.03162 µM); 0.692 in experiment [4] (first compound 0.1 µM). Also, the relative viability in experiment [4] (first compound 0.3162 µM) amounted to 0.723; in experiment [4] (first compound 1 µM), 0.546.
For the cell line NCI-H322M, the relative viability stood at 0.655 in experiment [1] (first compound 0.01 µM); 0.74 in experiment [1] (first compound 0.03162 µM); 0.72 in experiment [1] (first compound 0.1 µM); 0.377 in experiment [1] (first compound 0.3162 µM); 0.353 in experiment [1] (first compound 1 µM); 0.863 in experiment [2] (first compound 0.01 µM). The relative viability in experiment [2] (first compound 0.03162 µM) was 0.962; in experiment [2] (first compound 0.1 µM), 0.73; in experiment [2] (first compound 0.3162 µM) it was 0.728; in experiment [2] (first compound 1 µM), 0.611; in experiment [3] (first compound 0.01 µM) it was 0.504; in experiment [3] (first compound 0.03162 µM), 0.566. For the same cell line, the relative viability in experiment [3] (first compound 0.1 µM) was 0.397; in experiment [3] (first compound 0.3162 µM), 0.493; in experiment [3] (first compound 1 µM) it was 0.384; in experiment [4] (first compound 0.01 µM) it was 0.531; in experiment [4] (first compound 0.03162 µM), 0.564; in experiment [4] (first compound 0.1 µM), 0.469. In addition, the relative viability in experiment [4] (first compound 0.3162 µM) stood at 0.457; in experiment [4] (first compound 1 µM), 0.47.
For PC-3 [JPC-3], the relative viability in experiment [1] (first compound 0.01 µM) amounted to 0.476; in experiment [1] (first compound 0.03162 µM) it was 0.511; in experiment [1] (first compound 0.1 µM), 0.475; in experiment [1] (first compound 0.3162 µM), 0.364; in experiment [1] (first compound 1 µM), 0.336; in experiment [2] (first compound 0.01 µM), 0.796. For the same cell line, the relative viability stood at 1.09 in experiment [2] (first compound 0.03162 µM); 0.69 in experiment [2] (first compound 0.1 µM); 0.694 in experiment [2] (first compound 0.3162 µM); 0.518 in experiment [2] (first compound 1 µM); 0.689 in experiment [3] (first compound 0.01 µM); 0.819 in experiment [3] (first compound 0.03162 µM). The relative viability in experiment [3] (first compound 0.1 µM) amounted to 0.576; in experiment [3] (first compound 0.3162 µM), 0.785; in experiment [3] (first compound 1 µM) it was 0.497; in experiment [4] (first compound 0.01 µM) it was 0.693; in experiment [4] (first compound 0.03162 µM) it was 0.756; in experiment [4] (first compound 0.1 µM), 0.633. The relative viability turned out to be 0.749 in experiment [4] (first compound 0.3162 µM) and 0.671 in experiment [4] (first compound 1 µM).
